Data as given in ChEMBL document CHEMBL1142801, “Bradykinin B1 antagonists: SAR studies in the 2,3-diaminopyridine series” (Bioorg Med Chem Lett, 2005).

Experiments:
[1] = Partition coefficient (logP); conditions: octanol/water
B1 bradykinin receptor = target: T1, B1 bradykinin receptor (Homo sapiens, UniProt P46663); assay: Binding affinity against Human bradykinin receptor B1
T1 sequence (P46663 whole entry): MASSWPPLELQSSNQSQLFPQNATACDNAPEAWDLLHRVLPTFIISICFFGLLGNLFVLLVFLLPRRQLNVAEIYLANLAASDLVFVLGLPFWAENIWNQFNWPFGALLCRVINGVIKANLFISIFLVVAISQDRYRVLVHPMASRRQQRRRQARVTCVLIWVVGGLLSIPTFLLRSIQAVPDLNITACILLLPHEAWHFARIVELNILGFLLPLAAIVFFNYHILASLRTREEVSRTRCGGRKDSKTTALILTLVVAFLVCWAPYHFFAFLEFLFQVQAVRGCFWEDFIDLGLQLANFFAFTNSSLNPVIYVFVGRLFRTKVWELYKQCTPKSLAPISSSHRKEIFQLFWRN

[2] = Volume of distribution was determined in Sprague Dawley rats; assay type: ADME, organism-based; conditions: rat, in vivo
[3] = Clearance in Sprague Dawley rats; assay type: ADME, organism-based; conditions: rat, in vivo
[4] = Half life in Sprague Dawley rats; assay type: ADME; conditions: rat, in vivo
[5] = Bioavailability of compound upon oral administration of 10 mg/kg (dose) in Sprague Dawley rat; assay type: ADME, organism-based; conditions: in vivo
[6] = Protein binding using 10% human serum; assay type: ADME; conditions: for fraction unbound: 10% human serum, read-out: Protein binding (converted)

logP ([1]; logP)	Ki (B1 bradykinin receptor) [nM]	fraction unbound [6]	SMILES	further results
2.7	385		COC(=O)c1ccccc1C1CCC(CNc2nccc(C)c2NC(=O)CC#N)CC1 (stereo unspecified)	
2.4	2	0.08	Cc1noc([C@H]2CC=CC[C@@H]2c2ccc(CNc3nccc(C)c3NC(=O)CC#N)cc2)n1	Vd [2]: 0.47 L/kg; clearance [3]: 17 mL/min/kg; half-life [4]: 1.2 h; bioavailability [5]: 18%
2.5	11	0.01	COC(=O)c1ccccc1-c1ccc(CNc2nccc(C)c2NC(=O)CC#N)cc1	Vd [2]: 0.36 L/kg; clearance [3]: 4.3 mL/min/kg; half-life [4]: 1.9 h; bioavailability [5]: 18%
	130		COC(=O)c1ccccc1N1CC=C(CNc2nccc(C)c2NC(=O)CC#N)CC1	
3	35	0.04	COC(=O)C1=C(c2ccc(CNc3nccc(C)c3NC(=O)CC#N)cc2)CCCC1	
2.1	13	0.07	COC(=O)c1ccccc1N1CCC(CNc2nccc(C)c2NC(=O)CC#N)CC1	
	> 5000		COC(=O)N1CCCCC1c1ccc(CNc2nccc(C)c2NC(=O)CC#N)cc1 (stereo unspecified)	
2.7	> 5000	0.22	COC(=O)C1CCCCN1c1ccc(CNc2nccc(C)c2NC(=O)CC#N)cc1 (stereo unspecified)	
2.6	3500	0.1	COC(=O)c1ccccc1N1CCC(C)(CNc2nccc(C)c2NC(=O)CC#N)CC1	
	> 5000	0.35	COC(=O)c1ccccc1N1CCC(O)(CNc2nccc(C)c2NC(=O)CC#N)CC1	Vd [2]: 0.24 L/kg; clearance [3]: 2.2 mL/min/kg; half-life [4]: 3 h; bioavailability [5]: 22%
	> 5000		COC(=O)C1CCCN1c1ccc(CNc2nccc(C)c2NC(=O)CC#N)cc1 (stereo unspecified)	
	126		COC(=O)C1=C(c2ccc(CNc3nccc(C)c3NC(=O)CC#N)cc2)CCC1	
2.4	250	0.19	COC(=O)c1cccn1-c1ccc(CNc2nccc(C)c2NC(=O)CC#N)cc1	
2.5	25	0.01	COC(=O)c1ccccc1C1=CCC(CNc2nccc(C)c2NC(=O)CC#N)CC1 (stereo unspecified)	
2.7	2.2	0.05	COC(=O)C1CCCCC1c1ccc(CNc2nccc(C)c2NC(=O)CC#N)cc1 (racemic)	Vd [2]: 0.38 L/kg; clearance [3]: 30 mL/min/kg; half-life [4]: 0.5 h; bioavailability [5]: 4%
	7		COC(=O)C1CC=CCC1c1ccc(CNc2nccc(C)c2NC(=O)CC#N)cc1 (racemic; cis)	logP [1]: 3.3; Protein binding ([6]; serum): 96%
2.7	0.83	0.04	COC(=O)C1CC=CCC1c1ccc(CNc2nccc(C)c2NC(=O)CC#N)cc1 (racemic; trans)	Vd [2]: 0.55 L/kg; clearance [3]: 29 mL/min/kg; half-life [4]: 1 h; bioavailability [5]: 5%
	1.3		COC(=O)C1CC=CCC1c1ccc(CNc2nccc(C)c2NC(=O)CC#N)cc1 (single isomer, unassigned; (+))	logP [1]: 2.3
	1		COC(=O)C1CC=CCC1c1ccc(CNc2nccc(C)c2NC(=O)CC#N)cc1 (stereo in doubt; (-)18)	logP [1]: 2.4

SMILES	logP ([1]; logP)	Ki (B1 bradykinin receptor) [nM]	fraction unbound [6]	further results
COC(=O)C1C2CCC(C2)C1c1ccc(CNc2nccc(C)c2NC(=O)CC#N)cc1 (racemic)		730		
COC(=O)C1C2CCC(CC2)C1c1ccc(CNc2nccc(C)c2NC(=O)CC#N)cc1 (racemic)		54		logP [1]: 3.4
COC(=O)C1C2C=CC(CC2)C1c1ccc(CNc2nccc(C)c2NC(=O)CC#N)cc1 (racemic; form 1)		142		logP [1]: 3.1
COC(=O)C1C2C=CC(CC2)C1c1ccc(CNc2nccc(C)c2NC(=O)CC#N)cc1 (racemic; form 2)		38		
